Data on three compounds can be found in ChEMBL document CHEMBL1145478, “Neisseria gonorrhoeae isolates with reduced susceptibility to cefixime and ceftriaxone: association with genetic polymorphisms in penA, mtrR, porB1b, and ponA” (2007).

Molecules are shown by their SMILES. ≈ marks a conversion by molar mass, not a printed value. Where only a bound is given, the exact number is not on record here.

Common to all, as to assay type: functional
Assay [1] relates to Neisseria gonorrhoeae. As to the kind of experiment: Antimicrobial activity against Neisseria gonorrhoeae 67 isolate.
The subject of assay [2] is Neisseria gonorrhoeae. As to the kind of experiment: Antimicrobial activity against Neisseria gonorrhoeae 65 isolate.
Assay [3] has as its system Neisseria gonorrhoeae. As to the kind of experiment: Antimicrobial activity against Neisseria gonorrhoeae 64 isolate.
The subject of assay [4] is Neisseria gonorrhoeae. As to the kind of experiment: Antimicrobial activity against Neisseria gonorrhoeae 30 isolate.
Assay [5] deals with Neisseria gonorrhoeae. As to the kind of experiment: Antimicrobial activity against Neisseria gonorrhoeae 196 isolate.
For assay [6], the system named is Neisseria gonorrhoeae. As to the kind of experiment: Antimicrobial activity against Neisseria gonorrhoeae 273 isolate.
Assay [7] concerns Neisseria gonorrhoeae. As to the kind of experiment: Antimicrobial activity against Neisseria gonorrhoeae 253 isolate.
Assay [8] has as its system Neisseria gonorrhoeae. As to the kind of experiment: Antimicrobial activity against Neisseria gonorrhoeae 201 isolate.
Assay [9] relates to Neisseria gonorrhoeae. As to the kind of experiment: Antimicrobial activity against Neisseria gonorrhoeae 188 isolate.
Assay [10] has as its system Neisseria gonorrhoeae. As to the kind of experiment: Antimicrobial activity against Neisseria gonorrhoeae 158 isolate.
Assay [11] concerns Neisseria gonorrhoeae. Description: Antimicrobial activity against Neisseria gonorrhoeae 119 isolate.
Assay [12] relates to Neisseria gonorrhoeae. As to the kind of experiment: Antimicrobial activity against Neisseria gonorrhoeae 59 isolate.
Assay [13] has as its system Neisseria gonorrhoeae. As to the kind of experiment: Antimicrobial activity against Neisseria gonorrhoeae 35 isolate.
For assay [14], the system named is Neisseria gonorrhoeae. Description: Antimicrobial activity against Neisseria gonorrhoeae 82 isolate.
The test system of assay [15] is Neisseria gonorrhoeae. Description: Antimicrobial activity against Neisseria gonorrhoeae 90 isolate.
Assay [16] concerns Neisseria gonorrhoeae. Description: Antimicrobial activity against Neisseria gonorrhoeae 91 isolate.
The subject of assay [17] is Neisseria gonorrhoeae. Description: Antimicrobial activity against Neisseria gonorrhoeae 128 isolate.

Turning to `C=CC1=C(C(=O)O)N2C(=O)[C@@H](NC(=O)/C(=N\OCC(=O)O)c3csc(N)n3)[C@H]2SC1` [CEFIXIME], the MIC worked out at 0.25 µg/mL (≈ 0.551 µM) with Neisseria gonorrhoeae [1]; 0.25 µg/mL (≈ 0.551 µM) in the assay on Neisseria gonorrhoeae [2]; 0.25 µg/mL (≈ 0.551 µM) in the assay with Neisseria gonorrhoeae [3]; 0.25 µg/mL (≈ 0.551 µM) against Neisseria gonorrhoeae [4]; 0.094 µg/mL (≈ 0.207 µM) against Neisseria gonorrhoeae [5]; 0.064 µg/mL (≈ 0.141 µM) in the assay with Neisseria gonorrhoeae [6]. Also, the MIC in the assay on Neisseria gonorrhoeae [7] is 0.064 µg/mL (≈ 0.141 µM); against Neisseria gonorrhoeae [8], 0.064 µg/mL (≈ 0.141 µM); in the assay on Neisseria gonorrhoeae [9] it was 0.064 µg/mL (≈ 0.141 µM); with Neisseria gonorrhoeae [10] it was 0.047 µg/mL (≈ 0.104 µM); against Neisseria gonorrhoeae [11], below 0.016 µg/mL; against Neisseria gonorrhoeae [12], 0.25 µg/mL (≈ 0.551 µM). The MIC with Neisseria gonorrhoeae [13] was 0.38 µg/mL (≈ 0.838 µM); against Neisseria gonorrhoeae [14] it was 0.38 µg/mL (≈ 0.838 µM); against Neisseria gonorrhoeae [15] it was 0.38 µg/mL (≈ 0.838 µM); against Neisseria gonorrhoeae [16], 0.38 µg/mL (≈ 0.838 µM); against Neisseria gonorrhoeae [17], below 0.016 µg/mL.

In the case of `CO/N=C(\C(=O)N[C@@H]1C(=O)N2C(C(=O)O)=C(CSc3nc(=O)c(O)nn3C)CS[C@H]12)c1csc(N)n1` [CEFTRIAXONE], the minimum inhibitory concentration (MIC) against Neisseria gonorrhoeae [1], in the assay on Neisseria gonorrhoeae [2], against Neisseria gonorrhoeae [3], against Neisseria gonorrhoeae [4], against Neisseria gonorrhoeae [5] and with Neisseria gonorrhoeae [6] was 0.094 µg/mL (≈ 0.169 µM) throughout. Further, the MIC is 0.064 µg/mL (≈ 0.115 µM) against Neisseria gonorrhoeae [7]; 0.064 µg/mL (≈ 0.115 µM) with Neisseria gonorrhoeae [8]; 0.064 µg/mL (≈ 0.115 µM) in the assay with Neisseria gonorrhoeae [9]; 0.094 µg/mL (≈ 0.169 µM) in the assay with Neisseria gonorrhoeae [10]; below 0.002 µg/mL against Neisseria gonorrhoeae [11]; 0.094 µg/mL (≈ 0.169 µM) against Neisseria gonorrhoeae [12]. Further, the minimum inhibitory concentration (MIC) against Neisseria gonorrhoeae [13] is 0.094 µg/mL (≈ 0.169 µM); in the assay on Neisseria gonorrhoeae [14], 0.125 µg/mL (≈ 0.225 µM); with Neisseria gonorrhoeae [15] it was 0.125 µg/mL (≈ 0.225 µM); with Neisseria gonorrhoeae [16], 0.125 µg/mL (≈ 0.225 µM); against Neisseria gonorrhoeae [17], below 0.002 µg/mL.

For the compound `CC1(C)S[C@@H]2[C@H](NC(=O)Cc3ccccc3)C(=O)N2[C@H]1C(=O)O` [PENICILLIN G], the MIC worked out at 2 µg/mL (≈ 5.98 µM) against Neisseria gonorrhoeae [1]; 1.5 µg/mL (≈ 4.49 µM) with Neisseria gonorrhoeae [2]; 2 µg/mL (≈ 5.98 µM) in the assay on Neisseria gonorrhoeae [3]; 3 µg/mL (≈ 8.97 µM) against Neisseria gonorrhoeae [4]; 1 µg/mL (≈ 2.99 µM) in the assay with Neisseria gonorrhoeae [5]; 1.5 µg/mL (≈ 4.49 µM) against Neisseria gonorrhoeae [6]. Further, the minimum inhibitory concentration (MIC) with Neisseria gonorrhoeae [7] stood at 1.5 µg/mL (≈ 4.49 µM); in the assay with Neisseria gonorrhoeae [8], 1 µg/mL (≈ 2.99 µM); in the assay on Neisseria gonorrhoeae [9], 1 µg/mL (≈ 2.99 µM); with Neisseria gonorrhoeae [10], 1.5 µg/mL (≈ 4.49 µM); in the assay on Neisseria gonorrhoeae [11], 0.012 µg/mL (≈ 0.0359 µM); in the assay on Neisseria gonorrhoeae [12] it was 6 µg/mL (≈ 17.9 µM). Besides, the minimum inhibitory concentration (MIC) with Neisseria gonorrhoeae [13] stood at 2 µg/mL (≈ 5.98 µM); in the assay on Neisseria gonorrhoeae [14] it was 6 µg/mL (≈ 17.9 µM); against Neisseria gonorrhoeae [15], 6 µg/mL (≈ 17.9 µM); against Neisseria gonorrhoeae [16], 6 µg/mL (≈ 17.9 µM); in the assay on Neisseria gonorrhoeae [17] it was 0.008 µg/mL (≈ 0.0239 µM).
